Broadly, the EC50 is the concentration that produces a half-maximal response.

Consider 18 molecules from patent US9896441B2 (Lycera Corporation, priority 2014, dated 2018).

The target in one assay is T1, RORγ-LBD (Homo sapiens, UniProt P51449).
T1 construct: made in house; host or cells: SF9 cells (baculovirus); used as diluted lysate
T1 sequence (P51449 269-508 limits assumed): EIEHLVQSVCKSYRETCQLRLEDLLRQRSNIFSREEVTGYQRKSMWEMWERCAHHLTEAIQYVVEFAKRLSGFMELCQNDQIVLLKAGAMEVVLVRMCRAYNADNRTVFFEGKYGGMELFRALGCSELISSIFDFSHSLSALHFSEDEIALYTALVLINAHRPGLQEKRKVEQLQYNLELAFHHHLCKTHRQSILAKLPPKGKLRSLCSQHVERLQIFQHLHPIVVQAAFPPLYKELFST
In words: RORγ-Ligand Binding Domain (LBD) TR-FRET Assay.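 For TR-FRET Assay Max Response: 665/615 nm signal ratio set to 100 without ursolic acid or test compound.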 It is filed as biochemical. The note with it: for TR-FRET Assay Max Response: maximum response. The method in brief:
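This TR-FRET coactivator assay pairs baculovirus-expressed His-RORγ-LBD (~3 nM final) with biotin-SRC1 LXXLL peptide at 200 nM final in pH 7.0 Tris/KCl/EDTA/DTT/BSA buffer.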
On the technique in general: Time-resolved FRET reads energy transfer from a long-lived donor to a nearby acceptor.

The next assay has as its target T2, Gal4-RORγ-LBD (Homo sapiens, UniProt P51449).
T2 construct: expressed in transfected cells
T2 sequence (P51449 269-508 limits assumed): T1 sequence (P51449 269-508 limits assumed)
In words: Gal4-RORγ Luciferase Reporter Assay in HEK-293T Cells. It is filed as cell-based. The note with it: HEK-293 cells, luciferase reporter; for Gal4-RORγ Assay Max Response: maximum response. The method in brief:
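HEK-293 cells were co-transfected with Gal4-RORγ-LBD and a Gal4-luciferase reporter, then exposed overnight at 37 °C to compounds with […] ursolic acid present (0.2% DMSO). Luminescence was read with One-Glo after 10 min at RT, untreated signal was set as 100, and Max Response was taken as the upper plateau of a 4-parameter logistic fit.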
(In general: Reporter assays use an easily measured gene product as a stand-in for the process of interest.)

In the case of `CCOc1nn(CC)cc1S(=O)(=O)N1C[C@H](CCC(=O)O)Oc2ccc(/C=C/c3ccccc3SC)cc21` [Example 89AU, (S,E)-3-(4-((3-ethoxy-1-ethyl-1H-pyrazol-4-yl)sulfonyl)-6-(2-(methylthio)styryl)-3,4-dihydro-2H-benzo[b][1,4]oxazin-2-yl)propanoic acid], the EC50 on RORγ-LBD (RORγ-LBD TR-FRET) and at Gal4-RORγ-LBD (with ursolic acid) was less than 500 nM throughout.

In the case of `C/C(=C\c1ccc2c(c1)N(S(=O)(=O)c1cccc(C(F)(F)F)c1)C[C@H](CCC(=O)N1CCS(=O)(=O)CC1)O2)c1c(F)cccc1Cl` [Example 127C, (S,E)-3-(6-(2-(2-chloro-6-fluorophenyl)prop-1-en-1-yl)-4-((3-(trifluoro-methyl)phenyl)sulfonyl)-3,4-dihydro-2H-benzo[b][1,4]oxazin-2-yl)-1-(1,1-dioxidothio-morpholino)propan-1-one], at RORγ-LBD (RORγ-LBD TR-FRET assay), the EC50 was less than 500 nM and the “TR-FRET Assay Max Response” value was “**** (a value greater than 200)”. Moreover, at Gal4-RORγ-LBD (in presence of ursolic acid), the half-maximal effective concentration (EC50) was less than 500 nM and the “Gal4-RORγ Assay Max Response” value is on record as “** (a value in the range of greater than 90 to 150)”.

For the molecule `CCOc1ncc(C(F)(F)F)cc1S(=O)(=O)N1C[C@H](CCC(=O)O)Oc2ccc(/C=C/c3c(Cl)cccc3C(F)(F)F)cc21` [Example 89DM, (S,E)-3-(6-(2-chloro-6-(trifluoromethyl)styryl)-4-((2-ethoxy-5-(trifluoromethyl)-pyridin-3-yl)sulfonyl)-3,4-dihydro-2H-benzo[b][1,4]-oxazin-2-yl)propanoic acid], the EC50 on RORγ-LBD (RORγ-LBD TR-FRET) and on Gal4-RORγ-LBD (with ursolic acid) was less than 500 nM in each case.

Consider `CC(=O)NC[C@H]1CN(S(=O)(=O)c2cccc(C(F)(F)F)c2)c2cc(/C=C(\C)c3c(F)cccc3Cl)ccc2O1` [Example 109C, (S,E)-N-((6-(2-(2-chloro-6-fluorophenyl)prop-1-en-1-yl)-4-((3-(trifluoromethyl)phenyl)-sulfonyl)-3,4-dihydro-2H-benzo[b][1,4]oxazin-2-yl)methyl)acetamide], for which, on RORγ-LBD (RORγ-LBD TR-FRET assay), the EC50 is less than 500 nM and the “TR-FRET Assay Max Response” value is “** (a value in the range of greater than 90 to 150)”. Further, on Gal4-RORγ-LBD (in presence of ursolic acid), the EC50 is less than 500 nM and the “Gal4-RORγ Assay Max Response” value is “** (a value in the range of greater than 90 to 150)”.

Take `COC(=O)CC[C@H]1CN(S(=O)(=O)c2cccc(C(F)(F)F)c2)c2cc(/C=C/c3cccc(Cl)c3)ccc2O1` [Example 89DI, methyl (S,E)-3-(6-(3-chlorostyryl)-4-((3-(trifluoromethyl)phenyl)-sulfonyl)-3,4-dihydro-2H-benzo[b][1,4]oxazin-2-yl)propanoate]: the values for the EC50 at RORγ-LBD (RORγ-LBD TR-FRET) and on Gal4-RORγ-LBD (with ursolic acid) were less than 500 nM and more than 10000 nM, respectively.

Consider `CCOc1nn(CC)cc1S(=O)(=O)N1C[C@H](CCC(=O)OC)Oc2ccc(/C=C/c3ccccc3SC)cc21` [Example 89AV, (S,E)-methyl 3-(4-((3-ethoxy-1-ethyl-1H-pyrazol-4-yl)sulfonyl)-6-(2-(methylthio)styryl)-3,4-dihydro-2H-benzo[b][1,4]oxazin-2-yl)propanoate], for which the EC50 on RORγ-LBD (RORγ-LBD TR-FRET) and at Gal4-RORγ-LBD (with ursolic acid) was less than 500 nM throughout.

`O=C(O)C1Cc2ccc(/C=C/c3c(Cl)cccc3C(F)(F)F)cc2N(S(=O)(=O)c2cccc(C(F)(F)F)c2)C1` (stereo not shown) [Example 15D, (E)-7-(2-chloro-6-(trifluoromethyl)styryl)-1-((3-(trifluoromethyl)phenyl)sulfonyl)-1,2,3,4-tetrahydroquinoline-3-carboxylic acid]: the values for the concentration for a half-maximal effect (EC50) on RORγ-LBD (RORγ-LBD TR-FRET) and on Gal4-RORγ-LBD (with ursolic acid) were less than 500 nM and 500 to 5000 nM, respectively.

As to `COC(=O)CC[C@H]1CN(S(=O)(=O)c2ccc(F)c(OC(F)F)c2)c2cc(/C=C(\C)c3c(F)cccc3Cl)ccc2O1` [Example 86AT, (S,E)-methyl 3-(6-(2-(2-chloro-6-fluorophenyl)prop-1-en-1-yl)-4-((3-(difluoromethoxy)-4-fluorophenyl)sulfonyl)-3,4-dihydro-2H-benzo[b][1,4]oxazin-2-yl)propanoate], the EC50 at RORγ-LBD (RORγ-LBD TR-FRET) and on Gal4-RORγ-LBD (with ursolic acid) was less than 500 nM each time.

Regarding `COc1cccnc1/C=C/c1ccc2c(c1)N(S(=O)(=O)c1cccc(C(F)(F)F)c1)C[C@H](CCC(=O)O)O2` [Example 89DK, (S,E)-3-(6-(2-(3-methoxypyridin-2-yl)vinyl)-4-((3-(trifluoromethyl)phenyl)-sulfonyl)-3,4-dihydro-2H-benzo[b][1,4]oxazin-2-yl)propanoic acid], the concentration giving a half-maximal response (EC50) on RORγ-LBD (RORγ-LBD TR-FRET) is less than 500 nM; at Gal4-RORγ-LBD (with ursolic acid) it was 500 to 5000 nM.

`C/C(=C\c1cc(F)c2c(c1)N(S(=O)(=O)c1cccc(C(F)(F)F)c1)C[C@H](CCC(=O)O)O2)c1c(F)cccc1Cl` [Example 50, (S,E)-3-(6-(2-(2-Chloro-6-fluorophenyl)prop-1-en-1-yl)-8-fluoro-4-((3-(trifluoromethyl)phenyl)sulfonyl)-3,4-dihydro-2H-benzo[b][1,4]oxazin-2-yl)propanoic acid]: the EC50 at RORγ-LBD (RORγ-LBD TR-FRET) and on Gal4-RORγ-LBD (with ursolic acid) was less than 500 nM throughout.

Regarding `CCOc1nn(CC)cc1S(=O)(=O)N1C[C@H](CCC(=O)O)Oc2ccc(/C=C/c3c(F)cccc3C(F)(F)F)cc21` [Example 88, (S,E)-3-(4-((3-Ethoxy-1-ethyl-1H-pyrazol-4-yl)sulfonyl)-6-(2-fluoro-6-(trifluoromethyl)styryl)-3,4-dihydro-2H-benzo[b][1,4]oxazin-2-yl)propanoic acid], the EC50 at RORγ-LBD (RORγ-LBD TR-FRET) was less than 500 nM; on Gal4-RORγ-LBD (with ursolic acid) it was 500 to 5000 nM.

For `COc1cc(S(=O)(=O)N2c3cc(OC4CCc5ccccc54)ccc3C[C@@H](C(=O)O)[C@H]2C)ccc1F` (mixture of isomers) [Example 22, (2R,3R)-7-((2,3-Dihydro-1H-inden-1-yl)oxy)-1-((4-fluoro-3-methoxy-phenyl)sulfonyl)-2-methyl-1,2,3,4-tetrahydroquinoline-3-carboxylic acid], the EC50 was less than 500 nM on RORγ-LBD (RORγ-LBD TR-FRET) and 500 to 5000 nM on Gal4-RORγ-LBD (with ursolic acid).

For the molecule `C/C(=C\c1cc2c(cc1C)O[C@@H](CCC(=O)O)CN2S(=O)(=O)c1cccc(OC(F)F)c1)c1c(F)cccc1Cl` [Example 54, (S,E)-3-(6-(2-(2-Chloro-6-fluorophenyl)prop-1-en-1-yl)-4-((3-(difluoromethoxy)phenyl)sulfonyl)-7-methyl-3,4-dihydro-2H-benzo[b][1,4]oxazin-2-yl)propanoic acid], the EC50 at RORγ-LBD (RORγ-LBD TR-FRET) is less than 500 nM; on Gal4-RORγ-LBD (with ursolic acid), 500 to 5000 nM.

In the case of `COc1cc(S(=O)(=O)N2c3cc(/C=C/c4c(F)cccc4Cl)ccc3C[C@@H](O)[C@H]2C)ccc1F` (racemic) [Example 168, (2R,3R)-7-((E)-2-Chloro-6-fluorostyryl)-1-((4-fluoro-3-methoxyphenyl)sulfonyl)-2-methyl-1,2,3,4-tetrahydroquinolin-3-ol], on RORγ-LBD (RORγ-LBD TR-FRET assay), the half-maximal effective concentration (EC50) is less than 500 nM and the “TR-FRET Assay Max Response” value is “*** (a value in the range of greater than 150 to 200)”. Moreover, at Gal4-RORγ-LBD (in presence of ursolic acid), the EC50 was less than 500 nM and the “Gal4-RORγ Assay Max Response” value is “* (a value in the range of 30 to 90)”.

`COC(=O)CC[C@H]1CN(S(=O)(=O)c2cccc(C(F)(F)F)c2)c2cc(/C=C/c3cccc(F)c3Cl)ccc2O1` [Example 89BQ, (S,E)-methyl 3-(6-(2-chloro-3-fluorostyryl)-4-((3-(trifluoromethyl)phenyl)sulfonyl)-3,4-dihydro-2H-benzo[b][1,4]oxazin-2-yl)propanoate]: the concentration for a half-maximal effect (EC50) at RORγ-LBD (RORγ-LBD TR-FRET) is less than 500 nM; at Gal4-RORγ-LBD (with ursolic acid) it was 500 to 5000 nM.

For the molecule `C/C(=C\c1ccc2c(c1)N(S(=O)(=O)c1cccc(C(F)(F)F)c1)C[C@H](CCNS(=O)(=O)C1CC1)O2)c1c(F)cccc1Cl` [Example 116A, (S,E)-N-(2-(6-(2-(2-chloro-6-fluorophenyl)prop-1-en-1-yl)-4-((3-(trifluoro-methyl)phenyl)-sulfonyl)-3,4-dihydro-2H-benzo[b][1,4]oxazin-2-yl)ethyl)cyclopropane-sulfonamide], at RORγ-LBD (RORγ-LBD TR-FRET assay), the EC50 is less than 500 nM and the “TR-FRET Assay Max Response” value is on record as “*** (a value in the range of greater than 150 to 200)”. For the same molecule, on Gal4-RORγ-LBD (in presence of ursolic acid), the EC50 is less than 500 nM and the “Gal4-RORγ Assay Max Response” value is reported as “** (a value in the range of greater than 90 to 150)”.

For `Cc1nn(C)c2ncc(S(=O)(=O)N3C[C@H](CCC(=O)O)Oc4ccc(/C=C/c5c(F)cccc5Cl)cc43)cc12` [Example 89DX, (S,E)-3-(6-(2-chloro-6-fluorostyryl)-4-((1,3-dimethyl-1H-pyrazolo[3,4-b]pyridin-5-yl)sulfonyl)-3,4-dihydro-2H-benzo[b][1,4]oxazin-2-yl)propanoic acid], the 50% effective concentration (EC50) at RORγ-LBD (RORγ-LBD TR-FRET) was 500 to 5000 nM; at Gal4-RORγ-LBD (with ursolic acid), more than 10000 nM.

`O=S(=O)(c1cccc(C(F)(F)F)c1)N1C[C@H](CO)Oc2ccc(Oc3ccccc3)cc21` [Example 130, (R)-(6-Phenoxy-4-((3-(trifluoromethyl)phenyl)sulfonyl)-3,4-dihydro-2H-benzo[b][1,4]oxazin-2-yl)methanol]: on RORγ-LBD (RORγ-LBD TR-FRET assay), the EC50 was less than 500 nM and the “TR-FRET Assay Max Response” value is reported as “*** (a value in the range of greater than 150 to 200)”. In addition, at Gal4-RORγ-LBD (in presence of ursolic acid), the EC50 lay in the range of 500 to 5000 nM and the “Gal4-RORγ Assay Max Response” value is “** (a value in the range of greater than 90 to 150)”.
